Assay results taken from US12410192B2, “Compound for inhibiting and inducing degradation of EGFR kinase” (BEIJING TIDE PHARMACEUTICAL CO., LTD., priority 2019, dated 2025).
Where two headings read alike, the source gives them in different places.

Experiments:
[1] = system: Ba/F3 (EGFR^L858R/T790M/C797S) cells; experiment: Assay of activity on Ba/F3 (EGFR^L858R/T790M/C797S) cells (CTG, 72 h); format: cell-based
Protocol: (§1) 30 nL of the compound dilution was added to a 384-well plate by Echo (Labcyte, Echo550). […] 2. Data Analysis
(§2) The percent inhibition rate (% inhibition) was calculated by the following formula
(§3) [formula] • LUMcmpd: Luminescence value of assay compound. • LUMpositive: Average LUM value of positive drug (Brigatinib) with a concentration of 10 μM. • LUMvehicle: Average LUM value of negative control group without drug treatment.
(§4) The nonlinear regression curve (dose response-variable slope) between the value of inhibition rate (%) and the logarithm of compound concentration was fitted with graphpad prism 8.0, the effect dose curve of compound was drawn, and the IC50 value was calculated. Y=Bottom+(Top−Bottom)/(1+10^((LogIC50−X)*HillSlope)) • X-axis: logarithm of compound concentration; Y axis: inhibition rate (% inhibition). 3.

[2] = system: Ba/F3 (EGFR^Del19/T790M/C797S) cells; experiment: Assay of activity on Ba/F3 (EGFR^Del19/T790M/C797S) cells (CTG, 72 h); format: cell-based
Protocol: as §1, §2, §3, §4

EGFR^L858R/T790M/C797S [3] = target: T1, EGFR^L858R/T790M/C797S (Homo sapiens (Human), UniProt P00533, C797S/L858R/T790M); experiment: Assay of inhibitory activity on EGFR (HTRF kinase assay); format: biochemical; settings: mutant EGFR kinase
Protocol: Formula of inhibition rate (%): […]
The nonlinear regression curve (dose response-variable slope) between the value of inhibition rate (%) and the logarithm of compound concentration was fitted with graphpad prism 8.0, the effect dose curve of compound was drawn, and IC50 value was calculated.

EGFR^L858R/T790M/C797S [4] = target: T1, EGFR^L858R/T790M/C797S; experiment: Assay of activity of compounds for inducing EGFR^L858R/T790M/C797S protein degradation; format: cell-based; settings: Ba/F3 (EGFR^L858R/T790M/C797S) cells
Protocol: In order to further explain the reason why the compounds of the present disclosure have inhibitory activity on Ba/F3 (EGFR^L858R/T790M/C797S) cells, representative compounds D3 was selected to study the mechanism of action of the compounds, and observe their effects on EGFR^L858R/T790M/C797S protein levels.
• Ba/F3 (EGFR^L858R/T790M/C797S) cells were cultured according to the culture conditions recommended by ATCC, and analyzed by index. • Complete medium: 1640 medium, 10% FBS, 1× glutamine, 1× penicillin-streptomycin. • Culture conditions: incubated at 37° C., 95% air, 5% CO2 incubator. (2) Compound Stock Solution:
10 mM stock solution in DMSO, stored at −20° C.
• The cells in the cell culture bottle were collected, and the cells with viability of >90% can be used in the assay. Cells were seeded in a 96-well plate with 40 μL cells, 1*10^5 cells/well. […] (6) Detection: • 1) 1 μg/mL of EGF activated cells were treated for 10 min; • 2) After the compound treatment, lysis buffer was added to lyse cells; 10 μL of cell lysate was transferred to a 384-well plate; in addition, 5 μL of acceptor mix was added to the 384-well plate, and shaken on a shaker for 1-2 min; • 3) 5 μL of donor mix was added to each well; the 384-well plate was sealed, shaken on a shaker for 1-2 min, left in the dark at room temperature overnight, and read with an enzyme labeling instrument. […]

Molecule “3-(1-oxo-4-(5-(4-(((R,E)-1^1,2^6,7-trimethyl-3-oxo-5^2,5^3-dihydro-1^1H,5^1H-11-oxa-4-aza-5 (2,1)-benzo[d]imidazole-2 (2,4)-pyridine-1 (4,5)-pyrazolecyclododecan-5^6-yl)methyl)piperazin-1-yl) pent-1-yn-1-yl)isoindol-2-yl)piperidine-2,6-dione [Compound D2]” has an IC50 [1] of 3.96 nM and an IC50 [2] of 3.89 nM.
“3-(1-oxo-4-(4-(4-(((R,E)-1^1,2^6,7-trimethyl-3-oxo-5^2,5^3-dihydro-1^1H,5^1H-11-oxa-4-aza-5 (2,1)-benzo[d]imidazole-2 (2,4)-pyridine-1 (4,5)-pyrazolecyclododecan-5^6-yl)methyl)piperazin-1-yl)butyl)isoindol-2-yl)piperidine-2,6-dione [Compound D1]” showed an IC50 [1] of 2.12 nM and an IC50 [2] of 2.7 nM.
For `Cc1cc2cc(n1)-c1cnn(C)c1OCCC[C@@H](C)CN1/C(=N/C2=O)Nc2ccc(CN3CCN(CCCCCCCc4cccc5c4CN(C4CCC(=O)NC4=O)C5=O)CC3)cc21` (stereo partly drawn) [Compound D5, 3-(1-oxo-4-(7-(4-(((R,E)-1^1,2^6,7-trimethyl-3-oxo-5^2,5^3-dihydro-1^1H,5^1H-11-oxa-4-aza-5 (2,1)-benzo[d]imidazole-2 (2,4)-pyridine-1 (4,5)-pyrazolecyclododecan-5^6-yl)methyl)piperazin-1-yl)heptyl)isoindol-2-yl)piperidine-2,6-dione], the IC50 (EGFR^L858R/T790M/C797S [3]) was 35.9 nM, the IC50 ([1]; Mus musculus, BaF3) was 11.6 nM and the IC50 ([2]; Ba/F3 EGFR-Del19/T790M/C797S) was 10.7 nM.
`C=CC(=O)Nc1cc(Nc2nccc(-c3cn(C)c4ccccc34)n2)c(OC)cc1N(C)CCN(C)C` [Osimertinib, reference compound] was tested, and the IC50 ([1]; Mus musculus, BaF3) was > 1000 nM and the IC50 ([2]; Ba/F3 EGFR-Del19/T790M/C797S) was > 1000 nM.
In the case of `Cc1cc2cc(n1)-c1cnn(C)c1OCCC[C@@H](C)CN1/C(=N/C2=O)Cc2ccc(CN3CCN(CCCCCCc4cccc5c4CN(C4CCC(=O)NC4=O)C5=O)CC3)cc21` (stereo partly drawn) [Compound D4, 3-(1-oxo-4-(6-(4-(((R,E)-1^1,2^6,7-trimethyl-3-oxo-5^2,5^3-dihydro-1^1H,5^1H-11-oxa-4-aza-5 (2,1)-benzo[d]imidazole-2 (2,4)-pyridine-1 (4,5)-pyrazolecyclododecan-5^6-yl)methyl)piperazin-1-yl)hexyl)isoindol-2-yl)piperidine-2,6-dione], the IC50 (EGFR^L858R/T790M/C797S [3]) is reported as 10.1 nM, the IC50 [1] is reported as 4.39 nM and the IC50 [2] is reported as 4.41 nM.
With `Cc1cc2cc(n1)-c1cnn(C)c1OCCC[C@@H](C)CN1/C(=N/C2=O)Nc2ccc(CN3CCN(CCCCCc4cccc5c4CN(C4CCC(=O)NC4=O)C5=O)CC3)cc21` (stereo partly drawn) [Compound D3, 3-(1-oxo-4-(5-(4-(((R,E)-1^1,2^6,7-trimethyl-3-oxo-5^2,5^3-dihydro-1^1H,5^1H-11-oxa-4-aza-5 (2,1)-benzo[d]imidazole-2 (2,4)-pyridine-1 (4,5)-pyrazolecyclododecan-5^6-yl)methyl)piperazin-1-yl)pentyl)isoindol-2-yl)piperidine-2,6-dione] the IC50 (EGFR^L858R/T790M/C797S [3]) was 1.09 nM, the IC50 ([1]; Mus musculus, BaF3) was 2.88 nM and the IC50 ([2]; Ba/F3 EGFR-Del19/T790M/C797S) was 3.13 nM. For the same molecule, the “effect on EGFR^L858R/T790M/C797S protein level (in words)” value (EGFR^L858R/T790M/C797S [4]; 6 h, dose-dependent) was “significantly reduces” and the DC50 (EGFR^L858R/T790M/C797S [4]; 6 h treatment, 0.01 nM to 1000 nM, read-out: DC50 (EGFR^L858R/T790M/C797S protein level)) was 9.28 nM.
